Legend:
Assay type in all cases: toxicity, cell-based
HEK-293T = assay: Incucyte cell viability with HEK293T; settings: human, 10 µM, compound concentration 10 uM
Fibroblast = assay: Incucyte cell viability with human fibroblast; settings: 10 µM, compound concentration 10 uM
U2OS = assay: Incucyte cell viability with U2OS; settings: human, 10 µM, compound concentration 10 uM
[1] = 0 h, replicate number 2, timepoint 0 hours
[2] = 6 h, replicate number 1, timepoint 6 hours
[3] = 12 h, replicate number 1, timepoint 12 hours
[4] = 18 h, replicate number 1, timepoint 18 hours
[5] = 24 h, replicate number 1, timepoint 24 hours
[6] = 0 h, replicate number 1, timepoint 0 hours
[7] = 6 h, replicate number 2, timepoint 6 hours
[8] = 12 h, replicate number 2, timepoint 12 hours
[9] = 18 h, replicate number 2, timepoint 18 hours
[10] = 24 h, replicate number 2, timepoint 24 hours
Further: filed as whole numbers so only -1 and 0 and 1 occur.

Row | SMILES | Growth Rate (HEK-293T; [1]) | Growth Rate (HEK-293T; [2]) | Growth Rate (HEK-293T; [3]) | Growth Rate (HEK-293T; [4]) | Growth Rate (HEK-293T; [5]) | Growth Rate (Fibroblast; [6]) | Growth Rate (Fibroblast; [2]) | Growth Rate (Fibroblast; [3]) | Growth Rate (Fibroblast; [4]) | Growth Rate (Fibroblast; [5]) | Growth Rate (U2OS; [6]) | Growth Rate (U2OS; [2]) | Growth Rate (U2OS; [3]) | Growth Rate (U2OS; [4]) | Growth Rate (U2OS; [5]) | Growth Rate (HEK-293T; [6]) | Growth Rate (HEK-293T; [7]) | Growth Rate (HEK-293T; [8]) | Growth Rate (Fibroblast; [1]) | Growth Rate (Fibroblast; [7]) | other results
1 | Cc1c(NC(=O)c2cc(C(N)=O)nc3cc(F)ccc23)c(C(F)(F)F)nn1Cc1ccc(C#N)cc1 [BAY-876] | 0 | 0 | 0 | 0 | 0 | 0 | 0 | 0 | 0 | 0 | 1 | 1 | 0 | 0 | 0 | – | – | – | – | – | Growth Rate (U2OS; [1]): 0; Growth Rate (U2OS; [7]): 0
2 | CC[C@H](CO)Nc1nc(NCc2ccccc2)c2ncn(C(C)C)c2n1 [SELICICLIB] | 1 | – | – | 1 | 0 | – | 0 | 0 | 0 | 0 | 1 | 0 | 0 | 0 | 0 | 0 | 0 | 0 | 0 | – | Growth Rate (U2OS; [1]): 0; Growth Rate (U2OS; [8]): 1
3 | CC(=O)N1CCC(c2ccc(C(=O)NC(=N)N)cc2C(F)(F)F)CC1 [BI 9627] | – | – | 1 | 1 | 1 | 0 | 1 | 0 | 1 | 0 | – | 1 | 1 | 1 | 1 | 0 | 1 | – | 1 | 0 | Growth Rate (Fibroblast; [9]): 0; Growth Rate (U2OS; [1]): 0
4 | O=C(NOCC1CC1)c1ccc(F)c(F)c1Nc1ccc(I)cc1Cl [CI-1040] | 1 | – | 0 | 0 | 0 | 0 | – | 1 | 1 | 1 | 0 | 0 | 0 | 0 | 0 | 0 | 0 | – | – | 1 | –
5 | O=C(c1ccc(C(=O)N2CCC(N3CCCC3)CC2)c(Nc2ccccc2)c1)N1CCC(N2CCCC2)CC1 | 0 | – | – | – | 1 | 0 | 1 | 1 | 1 | 1 | – | – | 1 | 1 | 1 | – | – | – | – | – | Growth Rate (U2OS; [7]): 1
6 | CO[C@H]1CC[C@H](CNc2ccc(S(=O)(=O)NC(=O)c3ccc(N4CCN(CC5=C(c6ccc(Cl)cc6)CC(C)(C)CC5)CC4)cc3Oc3cnc4[nH]ccc4c3)cc2[N+](=O)[O-])CC1 [A-1211212] | – | – | – | 1 | 1 | 0 | 0 | 0 | 0 | 0 | 0 | 1 | 0 | 0 | 0 | 0 | 1 | 1 | – | – | Growth Rate (HEK-293T; [10]): 0; Growth Rate (U2OS; [8]): 1; Growth Rate (U2OS; [10]): 1
7 | Cc1cnc(Nc2ccc(F)cc2Cl)nc1-c1c[nH]c(C(=O)N[C@H](CO)c2cccc(Cl)c2)c1 | – | 0 | 0 | 0 | 0 | – | 0 | 1 | 0 | 0 | 0 | 0 | 0 | 0 | 0 | 0 | – | – | 0 | – | Growth Rate (Fibroblast; [9]): 1; Growth Rate (Fibroblast; [10]): 1; Growth Rate (U2OS; [1]): 1
8 | CCCNS(=O)(=O)Nc1ncnc(OCCOc2ncc(Br)cn2)c1-c1ccc(Br)cc1 | – | 0 | 0 | 0 | 0 | 0 | 0 | 0 | 1 | 0 | – | 0 | 0 | 0 | 0 | 0 | – | – | – | – | –
9 | CC(C)OC(=O)C1=CN(C(=O)c2ccc(F)c(F)c2)CC(C)(C)c2c1[nH]c1ccccc21 [TUROFEXORATE ISOPROPYL] | – | 0 | 0 | 0 | 0 | 0 | 0 | 0 | 0 | 0 | 0 | – | 0 | 0 | 0 | 0 | – | – | – | – | Growth Rate (U2OS; [9]): 1; Growth Rate (U2OS; [10]): 1
10 | COc1cc(OC)cc(-c2noc(N3CCN(C)C4(CCN(c5ccnc(C)c5)CC4)C3)n2)c1 | – | 0 | – | – | 1 | – | 0 | 1 | 1 | 0 | 0 | 0 | 0 | 0 | 0 | – | – | 1 | 0 | 1 | Growth Rate (Fibroblast; [8]): 0; Growth Rate (Fibroblast; [9]): 0; Growth Rate (U2OS; [7]): 1; Growth Rate (U2OS; [8]): 1; Growth Rate (U2OS; [9]): 1; Growth Rate (U2OS; [10]): 1
11 | O=C(Nc1nc2cccc(-c3ccc(CN4CCS(=O)(=O)CC4)cc3)n2n1)C1CC1 [FILGOTINIB] | – | 0 | 0 | 0 | 0 | 0 | 1 | 0 | 0 | 0 | 1 | 1 | 0 | 0 | 0 | 0 | – | – | – | 0 | Growth Rate (U2OS; [7]): 0
12 | C[C@@H](c1cccc(C#N)c1)n1cc(Cl)cc(C(N)=O)c1=N.Cl | – | 1 | 0 | 1 | 1 | 0 | 1 | – | 1 | 1 | 0 | – | 1 | 1 | 1 | 0 | – | 1 | 1 | 0 | Growth Rate (Fibroblast; [8]): 0; Growth Rate (Fibroblast; [10]): 0
13 | O=C(NS(=O)(=O)c1ccc(NCC2CCOCC2)c([N+](=O)[O-])c1)c1ccc(N2CCN(Cc3ccc(C(F)(F)F)cc3-c3ccc(Cl)cc3)CC2)cc1Oc1cnc2[nH]ccc2c1 [A-1210227] | – | 0 | – | – | – | 0 | 1 | 1 | 1 | 1 | 0 | 0 | 1 | 0 | 1 | 0 | – | – | – | – | Growth Rate (HEK-293T; [10]): 1; Growth Rate (U2OS; [8]): 0; Growth Rate (U2OS; [10]): 0
14 | CCCCCNC(=O)NS(=O)(=O)c1cc([N+](=O)[O-])ccc1NC1CCCCC1 | 0 | 0 | 0 | 0 | 1 | 0 | – | 1 | 1 | 1 | 0 | – | 1 | 0 | 1 | 1 | 1 | 1 | 1 | 0 | Growth Rate (HEK-293T; [10]): 0; Growth Rate (Fibroblast; [8]): 0; Growth Rate (U2OS; [7]): 1; Growth Rate (U2OS; [9]): 1
15 | O=C1NC(c2ccccn2)Sc2ccccc21 (stereo not given) [BTZO-4] | – | 0 | 0 | 0 | 1 | 0 | 1 | 1 | 1 | 0 | 0 | 0 | 0 | 0 | 0 | 1 | – | – | – | – | Growth Rate (HEK-293T; [9]): 1; Growth Rate (HEK-293T; [10]): 0; Growth Rate (Fibroblast; [10]): 1; Growth Rate (U2OS; [8]): 1; Growth Rate (U2OS; [9]): 1; Growth Rate (U2OS; [10]): 1
16 | CC(C)C[C@H](CO)Nc1nc(S[C@@H](C)c2ccccc2)nc2nc(N)sc12 [AZD-8797] | 0 | 0 | 0 | 0 | 0 | 1 | 0 | 0 | 0 | 0 | – | 0 | 0 | 0 | 0 | 1 | 1 | 1 | 0 | – | Growth Rate (Fibroblast; [8]): 1; Growth Rate (Fibroblast; [9]): 1; Growth Rate (Fibroblast; [10]): 1
